# Experimental data: patent US20240158412A1 (Faxian Therapeutics, LLC, priority 2021, published 2024)
# Target: USP7 (Homo sapiens, UniProt Q93009)
# Test: biochemical
# 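Further: fluorescence intensity readout of USP7 enzymatic activity, reaction incubated 90 min at room temperature.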
# USP7, sequence (Q93009 whole entry): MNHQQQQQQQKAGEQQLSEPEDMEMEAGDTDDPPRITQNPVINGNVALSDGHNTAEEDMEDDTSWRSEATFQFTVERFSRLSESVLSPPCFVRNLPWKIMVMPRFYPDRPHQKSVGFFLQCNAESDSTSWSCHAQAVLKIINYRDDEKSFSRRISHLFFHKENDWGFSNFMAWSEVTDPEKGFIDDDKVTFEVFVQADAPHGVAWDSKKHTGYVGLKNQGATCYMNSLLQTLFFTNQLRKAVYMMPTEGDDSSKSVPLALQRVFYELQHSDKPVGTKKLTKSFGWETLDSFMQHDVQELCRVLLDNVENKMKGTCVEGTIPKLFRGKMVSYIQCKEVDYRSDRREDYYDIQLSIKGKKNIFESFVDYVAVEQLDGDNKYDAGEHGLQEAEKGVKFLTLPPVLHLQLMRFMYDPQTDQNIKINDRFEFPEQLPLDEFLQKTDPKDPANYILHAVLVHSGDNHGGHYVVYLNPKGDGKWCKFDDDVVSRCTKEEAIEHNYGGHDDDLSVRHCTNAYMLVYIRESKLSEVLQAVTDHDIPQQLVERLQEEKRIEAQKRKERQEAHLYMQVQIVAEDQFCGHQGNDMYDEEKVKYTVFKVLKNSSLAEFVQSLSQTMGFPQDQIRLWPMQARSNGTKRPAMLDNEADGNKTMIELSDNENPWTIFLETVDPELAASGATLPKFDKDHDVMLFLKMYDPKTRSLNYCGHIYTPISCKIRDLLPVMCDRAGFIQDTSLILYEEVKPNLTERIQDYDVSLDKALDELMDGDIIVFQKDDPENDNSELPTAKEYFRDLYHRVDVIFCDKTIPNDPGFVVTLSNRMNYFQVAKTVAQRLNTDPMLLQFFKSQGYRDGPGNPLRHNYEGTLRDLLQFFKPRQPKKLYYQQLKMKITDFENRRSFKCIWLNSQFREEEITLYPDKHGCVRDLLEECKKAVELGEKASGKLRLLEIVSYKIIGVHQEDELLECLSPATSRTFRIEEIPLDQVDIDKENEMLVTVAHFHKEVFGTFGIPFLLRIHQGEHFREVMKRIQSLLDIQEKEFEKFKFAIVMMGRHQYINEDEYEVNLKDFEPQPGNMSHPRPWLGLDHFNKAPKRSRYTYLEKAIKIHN
row,IC50,SMILES
1,< 10 nM,"CC(C)(C)c1cnn(Cc2cc3nccc(-c4cc(C#N)cc5c4N([C@@H]4CN[C@@](C)(CO)C4)C(=O)CO5)c3s2)c(=O)c1 [Example 225, 5-(2-((4-(tert-butyl)-6-oxopyridazin-1(6H)-yl)methyl)thieno[3,2-b]pyridin-7-yl)-4-((3S,5R)-5-(hydroxymethyl)-5-methylpyrrolidin-3-yl)-3-oxo-3,4-dihydro-2H-benzo[b][1,4]oxazine-7-carbonitrile]"
2,< 10 nM,"C[C@]1(CO)C[C@H](N2C(=O)COc3cc(C#N)cc(-c4ccnc5cc(Cn6ncc(C7(C(F)(F)F)CC7)cc6=O)sc45)c32)CN1 [Example 226, 4-[(3S,5R)-5-(hydroxymethyl)-5-methyl-pyrrolidin-3-yl]-3-oxo-5-[2-[[6-oxo-4-[1-(trifluoromethyl)cyclopropyl]pyridazin-1-yl]methyl]thieno[3,2-b]pyridin-7-yl]-1,4-benzoxazine-7-carbonitrile]"
3,101 to 1000 nM,"O=C1CCC(=O)N1Cc1cc2nccc(-c3cc(Cl)cc4c3N(c3cn[nH]c3)C(=O)CC4)c2s1 [Example 228, 1-((7-(6-chloro-2-oxo-1-(1H-pyrazol-4-yl)-1,2,3,4-tetrahydroquinolin-8-yl)thieno[3,2-b]pyridin-2-yl)methyl)pyrrolidine-2,5-dione]"
